Experimental data from patent US20190328833A1, “POLYMYXIN-ALGINATE OLIGOMER CONJUGATES” (AlgiPharma AS, priority 2016, published 2019).

What was measured:
[1] = test system: human kidney (HK-2) cell line; test: In vitro cytotoxicity: MTT assay; type: cell-based; conditions: HK-2, 72 h, concentration of the antibiotic or the antibiotic within the conjugate, mean (n=18)
Method: An MTT assay was used to assess cell viability in a human kidney (HK-2) cell line (72 h incubation). HK-2 cells were seeded into sterile 96-well microtitre plates (1×10^5 cells/mL) in 0.1 mL/well of media (K-SFM) containing L-glutamine, EGF and BPE. They were allowed to adhere for 24 h. The medium was then removed and a range of concentrations of test compounds (0.2 μm filter-sterilized) dissolved in fresh culture media were added to the cells. After a further 67 h incubation, MTT, 3-(4,5-dimethylthiazol-2-yl)-2,5-diphenyltetrazolium bromide, (20 μL of a 5 mg/mL solution in PBS) was added to each well and the cells were incubated for a further 5 h. The medium was then removed and the precipitated formazan crystals solubilized by addition of optical grade DMSO (100 μL) over 30 min. Absorbance was measured at 540 nm using a microtitre plate reader. Cell viability was expressed as a percentage of the viability of untreated control cells. The IC50 values were expressed as mean (n=18).
The IC50 values summarised below represent the concentration of the antibiotic (polymyxin B, colistin sulphate or colistin methanesulphonate (CMS)) or the antibiotic within the conjugate required to inhibit HK2 cells growth by half. OligoG is included as a control.

[2] = test system: V1 Pseudomonas aeruginosa R22; test: MIC, broth microdilution, V1; type: cell-based; conditions: n=3, median
Method: (§1) The strains used for susceptibility testing include both culture collection strains and clinical isolates (Table 1). To the extent indicated below, their known relevant genotypes and origin have been described by Khan et al. supra.
(§2) The MICs were determined using the broth microdilution method in accordance with standard guidelines (CLSI 2012). Test organisms were suspended in Mueller Hinton cation adjusted (MH) broth (100 μL, 1-5×10^4 CFU/mL) and incubated in 96-well microtitre plates in serial two-fold dilutions of the test compounds. The MIC was defined as the lowest concentration of test compound that produced no visible growth after 16-20 hours.

[3] = test system: V2 Pseudomonas aeruginosa (301); test: MIC, broth microdilution, V2; type: cell-based; conditions: for MIC V2: n=3, median
Method: as §1, §2

[4] = test system: NH57388A Pseudomonas aeruginosa; test: MIC, broth microdilution, NH57388A; type: cell-based; conditions: Batch 6; n=3, median
Method: as §1, §2

V3 Klebsiella pneumoniae = test: MIC, broth microdilution, V3; type: cell-based; conditions: for MIC V3: n=3, median
Method: as §1, §2

[5] = test system: V4 Acinetobacter baumanii MDR ACB; test: MIC, broth microdilution, V4; type: cell-based; conditions: n=3, median
Method: as §1, §2

V5 Escherichia coli = test: MIC, broth microdilution, V5; type: cell-based; conditions: n=3, median
Method: as §1, §2

[6] = test system: V6 Klebsiella pneumoniae IR25; test: MIC, broth microdilution, V6; type: cell-based; conditions: n=3, median
Method: as §1, §2

V7 Escherichia coli = test: MIC, broth microdilution, V7; type: cell-based; conditions: for MIC V7: n=3, median
Method: as §1, §2

V11 Escherichia coli = test: MIC, broth microdilution, V11; type: cell-based; conditions: Batch 6; n=3, median
Method: as §1, §2

[7] = test system: V19 Acinetobacter baumannii; test: MIC, broth microdilution, V19; type: cell-based; conditions: for MIC V19: n=3, median
Method: as §1, §2

Pseudomonas aeruginosa = test: MIC quoted for the biofilm study; type: cell-based; conditions: FIG. 9 legend and Example 7; strain not stated
Method: as §2
These experiments investigated whether OligoG-colistin conjugates could inhibit biofilm development more effectively than unconjugated forms of colistin. First, stock solutions of the test compounds were prepared at 1 mg/mL in MH broth and used to prepare a range of antibiotic concentrations (2×MIC-MIC/8) using double dilutions in MH broth across wells of a Greiner glass-bottomed optical 96-well plate (90 μL per well). Sterility (100 μL of MH broth) and growth (90 μL of MH broth plus 10 μL of tested bacterial pathogen) controls were also prepared. Overnight bacterial cultures were grown in TS broth (TSB) and diluted in MH broth to achieve an OD625 of 0.5, then 10 μL was added to the wells. Plates were wrapped in parafilm and incubated for 24 h on a rocker (20 rpm) at 37° C. […] The plate was wrapped in parafilm and kept in the dark until it was analysed by confocal laser scanning microscopy (CLSM), n=2.

[8] = test system: V2 Pseudomonas aeruginosa, V3 Klebsiella pneumoniae, V19 Acinetobacter baumannii, V7 Escherichia coli; test: Bacterial growth curves (absorbance at 600 nm, 48 h); type: cell-based
Method: Finally, bacterial growth curves, using the mean of the previously determined MIC values for OligoG-colistin conjugates (amide and ester linked) and colistin sulfate, were used to compare their pharmacokinetic profiles in vitro. For comparison, bacterial growth in the presence of i) OligoG, ii) PRONOVA (high molecular weight alginate) and iii) OligoG plus colistin, both at concentrations corresponding to the amounts present in the corresponding conjugates, was measured. Sterile 96-well microtitre plates were set up for MIC assay as previously described (range: MIC×16 to MIC/16, 0). Plates were then wrapped in parafilm and placed in a microtitre plate reader at 37° C., 5% CO2 and absorbance at 600 nm was measured hourly for 48 h. Experiments were conducted in triplicate and results were presented as mean values (n=3).

[9] = test system: Acinetobacter baumanii (V19); test: Two-compartment static dialysis bag PK/PD model, colony counts; type: cell-based; conditions: at MIC (0.25 μg/ml); after 4 h; Batch 6
Text: Studies were undertaken to investigate the PK/PD profiles of the OligoG-colistin conjugates (Batch 6) as compared to non-conjugated colistin in vitro. This is particularly important in nanoscale drug delivery systems where the incorporation of conventional small molecule drugs into nano-sized structures is associated with PK/PD properties that are substantially altered from the original drug. The model system previously described in Azzopardi (supra) was employed.
The unmasking of OligoG-colistin conjugates was simulated using the Azzopardi two-compartment static dialysis bag model under infinite sink conditions (total volume, 20 ml; inner-compartment volume, 5 ml). Dialysis membrane (10,000 g/mol molecular weight cutoff [MWCO]) was pre-soaked for 15 to 30 min in distilled water (dH2O), secured with dialysis clips, and suspended from an injection port to separate the inner compartment (IC) from the outer compartment (OC) in a sterilized 25-ml beaker sealed with a sterile medical-grade polyurethane membrane (Tegaderm).
The model system was prepared under aseptic conditions in a class 2 laminar airflow cabinet and transferred to a shaking incubator set at 37° C. in ambient air and constant orbital agitation at 70 rpm for 48 h. […] Samples were collected from the OC at various time points and characterised by bacterial colony counts (CFU/ml) using Miles and Misra Method.

[10] = test system: TNFα release from HK2 cells; test: TNFα release from HK2 cells (ELISA); type: cell-based, human; conditions: 72 h incubation, FIG. 8
Method: As a model inflammatory cytokine involved in polymyxin cyto toxicity, TNFα release from HK2 cells in response to polymyxins and OligoG-polymyxin conjugates was measured by ELISA. HK-2 cells were seeded into sterile 96-well microtitre plates (1×10^5 cells/mL) in 0.1 mL/well of media (K-SFM) containing L-glutamine, EGF and BPE. They were allowed to adhere for 24 h. The medium was then removed and a range of concentrations of test compounds (0.2 μm filter-sterilized) dissolved in fresh culture media were added to the cells. After 72 h incubation, microtiter plates were centrifuged (1500 rpm, 3 min) and the supernatant was transferred into a new 96-well microtitre plate.
TNFα ELISA Assay was carried out according the manufacturer's instructions (Thermo Scientific, ESS0001). Briefly, 100 μL of coating antibody (1:100 dilution in PBS) was added to each well of 96-well microtitre plate. […] Absorbance was measured at 450 nm minus 550 nm.
Standard curves were generated by plotting the average absorbance obtained for each standard concentration on the vertical (Y) axis versus the corresponding human TNFα concentration (pg/mL) on the horizontal (X) axis. Human TNFα amount in each sample was determined by interpolating from the absorbance value (Y-axis) to human TNFα concentration (X-axis) using the standard curve. […]

[11] = test system: Pseudomonas aeruginosa biofilms; test: Disruption of biofilm development (CLSM, live/dead stain); type: cell-based; conditions: 2×MIC-MIC/8; 24 h
Method: These experiments investigated whether OligoG-colistin conjugates could inhibit biofilm development more effectively than unconjugated forms of colistin. First, stock solutions of the test compounds were prepared at 1 mg/mL in MH broth and used to prepare a range of antibiotic concentrations (2×MIC-MIC/8) using double dilutions in MH broth across wells of a Greiner glass-bottomed optical 96-well plate (90 μL per well). Sterility (100 μL of MH broth) and growth (90 μL of MH broth plus 10 μL of tested bacterial pathogen) controls were also prepared. Overnight bacterial cultures were grown in TS broth (TSB) and diluted in MH broth to achieve an OD625 of 0.5, then 10 μL was added to the wells. Plates were wrapped in parafilm and incubated for 24 h on a rocker (20 rpm) at 37° C. After a 24 h incubation, the supernatant was carefully removed from all wells and 3 μL of live/dead stain (Live/dead Baclight Bacterial Viability kit; prepared by mixing 1 μL of component A and B in 1 mL of PBS) was added. The plate was wrapped in foil and kept in the dark for 15 min. Lastly, 47 μL of PBS was added to all tested wells. The plate was wrapped in parafilm and kept in the dark until it was analysed by confocal laser scanning microscopy (CLSM), n=2.

| Substance | IC50 ([1]; Batch 5) | MIC V1 ([2]; Batch 4) | MIC V1 ([2]; Batch 6) | MIC V2 ([3]; Batch 2) | MIC V2 ([3]; Batch 4) | MIC V2 ([3]; Batch 6) | MIC NH57-388A [4] | MIC V3 (V3 Klebsiella pneumoniae; Batch 2) | MIC V3 (V3 Klebsiella pneumoniae; Batch 4) | MIC V3 (V3 Klebsiella pneumoniae; Batch 6) | MIC V4 ([5]; Batch 4) | MIC V4 ([5]; Batch 6) | MIC V5 (V5 Escherichia coli; Batch 2) | MIC V5 (V5 Escherichia coli; Batch 4) | MIC V5 (V5 Escherichia coli; Batch 6) | MIC V6 ([6]; Batch 4) | MIC V6 ([6]; Batch 6) | MIC V7 (V7 Escherichia coli; Batch 4) | MIC V7 (V7 Escherichia coli; Batch 6) | MIC V11 (V11 Escherichia coli) | other results |
| --- | --- | --- | --- | --- | --- | --- | --- | --- | --- | --- | --- | --- | --- | --- | --- | --- | --- | --- | --- | --- | --- |
| colistin methanesulphonate [CMS] | 13970 ng/mL | – | – | – | – | – | – | – | – | – | – | – | – | – | – | – | – | – | – | – | – |
| colistin sulfate | 10980 ng/mL | 250 ng/mL | 500 ng/mL | 250 ng/mL | 250 ng/mL | 500 ng/mL | 250 ng/mL | <125 ng/mL | <63 ng/mL | 125 ng/mL | 500 ng/mL | 500 ng/mL | 0.02 ng/mL | <16 ng/mL | <8 ng/mL | 62.5 ng/mL | 63 ng/mL | 125 ng/mL | 250 ng/mL | 31 ng/mL | median MIC ([3]; FIG. 1 legend, V2, MIC used for growth curves): 63 ng/mL; median MIC (V3 Klebsiella pneumoniae; FIG. 2 legend, V3, MIC used for growth curves): 8 ng/mL; median MIC (V7 Escherichia coli; FIG. 4 legend, V7, MIC used for growth curves): 63 ng/mL; MIC V19 ([7]; Batch 2): <62.5 ng/mL; MIC V19 ([7]; Batch 4): <16 ng/mL; MIC V19 ([7]; Batch 6): 250 ng/mL; median MIC ([7]; FIG. 3 legend, V19, MIC used for growth curves): 2 ng/mL; median MIC (Pseudomonas aeruginosa): 63 ng/mL; bacterial growth / regrowth in growth curves ([8]; FIGS. 1-5, 48 h): more rapid bacterial regrowth; inhibition of bacterial re-growth ([8]; at the median of previously determined MIC values across all batches): shortest inhibition of bacterial re-growth; concentration inhibiting bacterial re-growth for up to 48 h ([8]; up to 48 h): > 8 ×MIC; reduction of viable bacterial counts [9]: ~2 fold; IC50 ([1]; Batch 4): 25000 ng/mL; TNFα release, adjusted for cell viability [10]: greater TNFα release; effect on biofilms [11]: only a small effect on P. aeruginosa biofilms |
| polymyxin B | 12630 ng/mL | 250 ng/mL | 250 ng/mL | 250 ng/mL | 500 ng/mL | 500 ng/mL | 250 ng/mL | <125 ng/mL | 125 ng/mL | 125 ng/mL | 125 ng/mL | 125 ng/mL | <0.008 ng/mL | <16 ng/mL | <4 ng/mL | 125 ng/mL | 125 ng/mL | 63 ng/mL | 500 ng/mL | 63 ng/mL | MIC V19 ([7]; Batch 2): <62.5 ng/mL; MIC V19 ([7]; Batch 4): 31 ng/mL; MIC V19 ([7]; Batch 6): 125 ng/mL; IC50 ([1]; Batch 4): 12000 ng/mL; TNFα release, adjusted for cell viability [10]: greater TNFα release |
